Reference: ChEMBL document CHEMBL4177527, “Synthesis and biological evaluation of a D-ring-contracted analogue of lamellarin D” (Bioorg Med Chem, 2017)
Calls of active or inactive are those of the source. The calls are words filed in the database; no cut-off is given here.

Key:
[1] = Resistance index, ratio of IC50 for human CEM/ADR5000 cells to IC50 for human CCRF-CEM cells; assay type: functional
ADR5000 cell line = assay: Cytotoxicity against human CEM/ADR5000 cells assessed as reduction in cell viability after 72 hrs by resazurin reduction assay; assay type: functional, cell-based; conditions: ADR5000, 72 h
CCRF-CEM [2] = assay: Induction of apoptosis in human CCRF-CEM cells at 0.01 uM after 72 hrs by propidium iodide staining-based flow cytometry; assay type: functional, cell-based
CCRF-CEM [3] = assay: Cytotoxicity against human CCRF-CEM cells assessed as reduction in cell viability after 72 hrs by resazurin reduction assay; assay type: functional, cell-based
CCRF-CEM [4] = assay: Cell cycle arrest in human CCRF-CEM cells assessed as accumulation at G2/M phase after 24 hrs by propidium iodide staining-based flow cytometry; assay type: functional
CCRF-CEM [5] = assay: Cell cycle arrest in human CCRF-CEM cells assessed as accumulation at S phase at 0.01 uM after 6 hrs by propidium iodide staining-based flow cytometry; assay type: functional
CCRF-CEM [6] = assay: Induction of apoptosis in human CCRF-CEM cells at 0.055 to 0.44 uM after 24 to 72 hrs by propidium iodide staining-based flow cytometry; assay type: functional, cell-based
CCRF-CEM [7] = assay: Cell cycle arrest in human CCRF-CEM cells assessed as accumulation at G2/M phase at 0.055 to 0.44 uM after 6 to 72 hrs by propidium iodide staining-based flow cytometry; assay type: functional
CCRF-CEM [8] = assay: Cell cycle arrest in human CCRF-CEM cells assessed as accumulation at SubG1 phase at 0.055 to 0.44 uM after 72 hrs by propidium iodide staining-based flow cytometry; assay type: functional
CCRF-CEM [9] = assay: Cell cycle arrest in human CCRF-CEM cells assessed as accumulation at S phase at 0.055 to 0.44 uM after 6 to 72 hrs by propidium iodide staining-based flow cytometry; assay type: functional

Row | SMILES | Ratio IC50 [1] | IC50 (ADR5000 cell line) [nM] | Activity (CCRF-CEM [2]) | IC50 (CCRF-CEM [3]) [nM] | Activity (CCRF-CEM [4]) | Activity (CCRF-CEM [5]) | Activity (CCRF-CEM [6]) | Activity (CCRF-CEM [7]) | Activity (CCRF-CEM [8]) | Activity (CCRF-CEM [9])
1 | CC[C@@]1(O)C(=O)OCc2c1cc1n(c2=O)Cc2cc3ccccc3nc2-1 [CAMPTOTHECIN] | 3.7 | 11 | Active | 3 | Dose-dependent effect | Active |  |  |  | 
2 | COc1cc(-c2c3c(n4ccc5cc(O)c(OC)cc5c24)C(=O)c2cc(O)c(OC)cc2-3)ccc1O | 1.5 | 172 |  | 113 |  |  | Active | inactive | Active | inactive
